Test results published in US8575360B2, “Derivatives of 6,7-dihydro-5H-imidazo[1,2-a]imidazole-3-carboxylic acid amides” (Boehringer Ingelheim International GmbH, priority 2009, dated 2013).

What follows are molecules tested against T1, LFA-1 (CD18/CD11a) binding to ICAM-1 (Homo sapiens, UniProt P05107+P20701) (assay: LFA-1/Biotin-sICAM-1 AlphaScreen assay: inhibition of LFA-1 binding to ICAM-1). Settings: 37° C. 90 minutes, highest compound concentration 1 μM.
T1 construct: followed by purified LFA-1 (in buffer of 50 mM triethylamine, 150 mM NaCl, 1% beta octylglucoside)
Text: Assay to Determine Inhibition of LFA-1 Binding to ICAM-1
This assay protocol is designed to study the direct antagonism, by a test compound, of the interaction of ICAM-1 with the Leukointegrin CD18/CD11a (LFA-1).
The LFA-1/Biotin-sICAM-1 molecular assay measures the ability of test compounds to inhibit binding of LFA-1 to Biotinylated-sICAM using AlphaScreen technology (Ref: Wilson, J, Rossi, C P, Carboni, S, Fremaux, C, Perrin, D, Soto, C, Kosco-Vilbois, M, and Scheer, A: A Homogeneous 384-Well High-Throughput Binding Assay for a TNF Receptor Using Alphascreen Technology. J Biomol Screen 2003; 8:522-532) that uses TS2/4(anti-LFA-1)-custom conjugated AlphaLisa acceptor beads and streptavidin-coated donor beads from PerkinElmer. The assay was performed in white OptiPlates-384 in a volume of 60 μL using assay buffer (Dulbecco's PBS containing calcium and magnesium, 2 mM MgCl2, 0.1 mM PMSF, 0.1% BSA, pH 7.1). To each well, Biotin-sICAM was added followed by purified LFA-1 (in buffer of 50 mM triethylamine, 150 mM NaCl, 1% beta octylglucoside, 2 mM MgCl2 neutralized to pH with 1M Tris-HCl, pH 7.5). For compound testing, compound was added in 5 uL to the above in 25 uL. LFA-1 and Biotin-sICAM-1 were used at concentrations that would yield a signal to background ratio of 8-10. The highest concentration of compound was 1 μM in 1% DMSO. Positive controls were wells without compound containing LFA-1, while blanks were wells without both compound and LFA-1. Plates were mixed and incubated at 37° C. for 90 minutes. This was followed by addition of 15 μL/well TS2/4-conjugated acceptor beads diluted in PBS containing 0.1% BSA for a final concentration of 10 μg/mL. The plates were mixed and incubated in the dark for 30 minutes at room temperature followed by addition of 15 μL/well streptavidin-coated donor beads diluted in PBS containing 0.1% BSA at a final concentration of 15 μg/mL. The plates were mixed and incubated in the dark for 60 minutes at room temperature and then read on an EnVision Multilabel Reader using AlphaScreen 384-well OptiPlate protocol.

T1 sequence (P20701 26-1170): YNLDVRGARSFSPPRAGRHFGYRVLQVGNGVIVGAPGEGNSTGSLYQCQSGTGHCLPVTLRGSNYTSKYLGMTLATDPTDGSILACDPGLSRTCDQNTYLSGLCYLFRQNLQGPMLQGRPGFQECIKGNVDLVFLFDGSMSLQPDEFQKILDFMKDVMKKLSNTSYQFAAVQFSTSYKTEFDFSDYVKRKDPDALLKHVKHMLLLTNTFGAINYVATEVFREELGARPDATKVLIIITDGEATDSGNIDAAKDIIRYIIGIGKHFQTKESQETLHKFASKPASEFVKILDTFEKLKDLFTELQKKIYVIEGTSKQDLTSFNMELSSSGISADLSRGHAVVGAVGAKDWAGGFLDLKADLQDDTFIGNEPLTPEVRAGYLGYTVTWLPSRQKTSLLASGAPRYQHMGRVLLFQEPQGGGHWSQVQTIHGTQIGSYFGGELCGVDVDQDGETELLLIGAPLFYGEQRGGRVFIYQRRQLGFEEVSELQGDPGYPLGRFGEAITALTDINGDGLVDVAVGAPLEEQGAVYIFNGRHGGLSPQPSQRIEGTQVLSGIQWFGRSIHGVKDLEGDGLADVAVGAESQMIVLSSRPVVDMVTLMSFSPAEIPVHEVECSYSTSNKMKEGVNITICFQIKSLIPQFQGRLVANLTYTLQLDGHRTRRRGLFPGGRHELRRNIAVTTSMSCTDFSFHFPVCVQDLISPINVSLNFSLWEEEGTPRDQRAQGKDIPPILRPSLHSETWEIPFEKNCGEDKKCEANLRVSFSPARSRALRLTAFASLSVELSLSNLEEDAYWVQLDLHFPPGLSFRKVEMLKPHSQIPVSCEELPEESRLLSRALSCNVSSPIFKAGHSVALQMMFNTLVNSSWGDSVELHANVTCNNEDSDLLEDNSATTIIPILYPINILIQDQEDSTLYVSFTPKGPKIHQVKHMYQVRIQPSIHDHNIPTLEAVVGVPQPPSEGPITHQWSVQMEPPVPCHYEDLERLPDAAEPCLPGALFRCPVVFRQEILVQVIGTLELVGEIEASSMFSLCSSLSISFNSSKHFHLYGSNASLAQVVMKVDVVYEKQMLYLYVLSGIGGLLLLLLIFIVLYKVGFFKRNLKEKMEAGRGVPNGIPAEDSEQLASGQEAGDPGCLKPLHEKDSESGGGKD
T1 sequence (P05107 23-769 partner): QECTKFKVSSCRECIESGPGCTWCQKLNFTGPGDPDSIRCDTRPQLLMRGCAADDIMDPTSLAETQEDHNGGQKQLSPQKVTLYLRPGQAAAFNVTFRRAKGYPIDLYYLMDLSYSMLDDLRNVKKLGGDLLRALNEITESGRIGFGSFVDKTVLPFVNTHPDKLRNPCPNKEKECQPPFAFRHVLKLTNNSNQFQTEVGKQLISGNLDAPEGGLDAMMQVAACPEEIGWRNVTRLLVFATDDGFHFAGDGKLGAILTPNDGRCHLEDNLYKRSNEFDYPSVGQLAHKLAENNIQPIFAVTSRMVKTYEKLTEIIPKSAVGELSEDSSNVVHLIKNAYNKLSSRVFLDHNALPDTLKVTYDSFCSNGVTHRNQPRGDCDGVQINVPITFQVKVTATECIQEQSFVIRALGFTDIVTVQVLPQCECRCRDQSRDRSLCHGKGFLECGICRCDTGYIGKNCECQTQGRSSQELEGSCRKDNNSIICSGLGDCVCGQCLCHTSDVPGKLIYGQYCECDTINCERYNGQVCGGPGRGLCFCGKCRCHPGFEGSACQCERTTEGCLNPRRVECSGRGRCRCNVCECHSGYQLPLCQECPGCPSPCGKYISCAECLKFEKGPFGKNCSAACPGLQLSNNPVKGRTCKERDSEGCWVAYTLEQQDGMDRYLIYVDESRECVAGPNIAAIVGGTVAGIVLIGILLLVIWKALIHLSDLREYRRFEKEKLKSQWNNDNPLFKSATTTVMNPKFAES

C[C@@]1(Cc2ccc(C#N)cc2)C(=O)N(c2cc(Cl)c(F)c(Cl)c2)c2ncc(C(=O)NC3(C(=O)NC4(c5ccc(-c6ccc(O)cc6)cn5)CC4)CC3)n21 [Compound 2] and C[C@@]1(Cc2ccc(C#N)cc2)C(=O)N(c2cc(Cl)c(F)c(Cl)c2)c2ncc(C(=O)NC3(C(=O)NC4(c5ccc(-c6ccc(CO)cc6)cn5)CC4)CC3)n21 [Compound 100] are within 1.5-fold of each other in IC50: 1.1 nM for the first, 1.3 nM for the second.

C[C@@]1(Cc2ccc(C#N)cc2)C(=O)N(c2cc(Cl)c(F)c(Cl)c2)c2ncc(C(=O)NC3(C(=O)NC4(c5ccc6cc(-c7cn[nH]c7)cnc6n5)CCC4)CC3)n21 [Compound 10] and C[C@@]1(Cc2ccc(C#N)cc2)C(=O)N(c2cc(Cl)c(F)c(Cl)c2)c2ncc(C(=O)NC3(C(=O)NC4(c5ccc(-c6cn[nH]c6)cn5)CC4)CC3)n21 [Compound 11] are within 1.5-fold of each other in IC50: 1 nM for the first, 1.2 nM for the second.

Going from Cn1ncc(-c2ccc(C3(NC(=O)C4(NC(=O)c5cnc6n5[C@](C)(Cc5ccc(C#N)cc5)C(=O)N6c5cc(Cl)c(F)c(Cl)c5)CC4)CC3)nc2)c1C1CC1 [Compound 13] to Cn1cc(-c2ccc(C3(NC(=O)C4(NC(=O)c5cnc6n5[C@](C)(Cc5ccc(C#N)cc5)C(=O)N6c5cc(Cl)c(F)c(Cl)c5)CC4)CC3)nc2)c(C2CC2)n1 [Compound 14], the IC50 falls from 1.8 nM to 1.1 nM (1.6-fold). The second is the more potent here.

First: Cn1cc(-c2ccc(C3(NC(=O)C4(NC(=O)c5cnc6n5[C@](C)(Cc5ccc(C#N)cc5)C(=O)N6c5cc(Cl)c(F)c(Cl)c5)CC4)CC3)nn2)c(C2CC2)n1 [Compound 15]
Second: Cn1cc(-c2ccc(C3(NC(=O)C4(NC(=O)c5cnc6n5[C@](C)(Cc5ccc(C#N)cc5)C(=O)N6c5cc(Cl)c(F)c(Cl)c5)CC4)CC3)nn2)cn1 [Compound 35]
The IC50 of the first is 3.3-fold higher: 1.6 nM for the first, 0.48 nM for the second.

C[C@@]1(Cc2ccc(C#N)cc2)C(=O)N(c2cc(Cl)c(F)c(Cl)c2)c2ncc(C(=O)NC3(C(=O)NC4(c5ccc(-c6ccc7nccn7c6)cn5)CC4)CC3)n21 [Compound 16] and Cc1ccc(-c2ccc(C3(NC(=O)C4(NC(=O)c5cnc6n5[C@](C)(Cc5ccc(C#N)cc5)C(=O)N6c5cc(Cl)c(F)c(Cl)c5)CC4)CC3)nc2)cn1 [Compound 18] are within 1.5-fold of each other in IC50: 1 nM for the first, 1.4 nM for the second.

C[C@@]1(Cc2ccc(OC(F)(F)F)cc2)C(=O)N(c2cc(Cl)c(F)c(Cl)c2)c2ncc(C(=O)NC3(C(=O)NC4(c5ccc(-c6ccc(N)nc6)cn5)CC4)CC3)n21 [Compound 20] and C[C@@]1(Cc2ccc(OC(F)(F)F)cc2)C(=O)N(c2cc(Cl)c(F)c(Cl)c2)c2ncc(C(=O)NC3(C(=O)NC4(c5ccc(-c6ccc(=O)[nH]c6)cn5)CC4)CC3)n21 [Compound 108] are within 1.5-fold of each other in IC50: 1.5 nM for the first, 1.1 nM for the second.

Cc1ccc(-c2ccc(C(C)NC(=O)C(NC(=O)c3cnc4n3C(C)(Cc3ccc(C#N)cc3)C(=O)N4c3cc(Cl)c(F)c(Cl)c3)C(C)O)nc2)cn1 (stereo not drawn) [Compound 30] and C[C@@H](NC(=O)C1(NC(=O)c2cnc3n2[C@](C)(Cc2ccc(C#N)cc2)C(=O)N3c2cc(Cl)c(F)c(Cl)c2)CC1)c1ccc(-c2ccc(CO)nc2)cn1 [Compound 65] are within 1.5-fold of each other in IC50: 0.61 nM for the first, 0.53 nM for the second.

Cn1cc(-c2cnc(C3(NC(=O)C4(NC(=O)c5cnc6n5[C@](C)(Cc5ccc(C#N)cc5)C(=O)N6c5cc(Cl)c(F)c(Cl)c5)CC4)CC3)nc2)cn1 [Compound 31] and C[C@@]1(Cc2ccc(C#N)cc2)C(=O)N(c2cc(Cl)c(F)c(Cl)c2)c2ncc(C(=O)NC3(C(=O)NC4(c5ncc(-c6cn[nH]c6)cn5)CC4)CC3)n21 [Compound 33] are within 1.5-fold of each other in IC50: 0.51 nM for the first, 0.57 nM for the second.

C[C@@]1(Cc2ccc(C#N)cc2)C(=O)N(c2cc(Cl)c(F)c(Cl)c2)c2ncc(C(=O)NC3(C(=O)NC4(c5ncc(-c6ccc(CO)cc6)cn5)CC4)CC3)n21 [Compound 32] and C[C@@]1(Cc2ccc(C#N)cc2)C(=O)N(c2cc(Cl)c(F)c(Cl)c2)c2ncc(C(=O)NC3(C(=O)NC4(c5ncc(-c6ccc(O)cc6)cn5)CC4)CC3)n21 [Compound 34] are within 1.5-fold of each other in IC50: 1.4 nM for the first, 1 nM for the second.

C[C@@]1(Cc2ccc(C#N)cc2)C(=O)N(c2cc(Cl)c(F)c(Cl)c2)c2ncc(C(=O)NC3(C(=O)NC4(c5ccc(-c6ccc(CO)cc6)nn5)CC4)CC3)n21 [Compound 37] and C[C@@]1(Cc2ccc(C#N)cc2)C(=O)N(c2cc(Cl)c(F)c(Cl)c2)c2ncc(C(=O)NC3(C(=O)NC4(c5ccc(-c6ccncc6)cn5)CC4)CC3)n21 [Compound 68] are within 1.5-fold of each other in IC50: 0.89 nM for the first, 0.6 nM for the second.

First: CC1(Cc2ccc(C#N)cc2)C(=O)N(c2cc(Cl)c(F)c(Cl)c2)c2ncc(C(=O)NC3(C(=O)NC4(c5ccc(-c6cnn(C7CC7)c6)cn5)CC4)CC3)n21 (stereo not drawn) [Compound 38]
Second: C[C@@]1(Cc2ccc(C#N)cc2)C(=O)N(c2cc(Cl)c(F)c(Cl)c2)c2ncc(C(=O)NC3(C(=O)NC4(c5ccc(-c6cccc(C(N)=O)c6)cn5)CC4)CC3)n21 [Compound 70]
The IC50 of the first is 2.1-fold higher: 1.7 nM for the first, 0.8 nM for the second. The second is the more potent here.

Cn1cc(-c2cnc(C3(NC(=O)C4(NC(=O)c5cnc6n5[C@](C)(Cc5ccc(OC(F)(F)F)cc5)C(=O)N6c5cc(Cl)c(F)c(Cl)c5)CC4)CC3)nc2)cn1 [Compound 40, (R)-7-(3,5-Dichloro-4-fluoro-phenyl)-5-methyl-6-oxo-5-(4-trifluoromethoxy-benzyl)-6,7-dihydro-5H-imidazo[1,2-a]imidazole-3-carboxylic acid(1-{1-[5-(1-methyl-1H-pyrazol-4-yl)-pyrimidin-2-yl]-cyclopropylcarbamoyl}-cyclopropyl)-amide] and C[C@@]1(Cc2ccc(OC(F)(F)F)cc2)C(=O)N(c2cc(Cl)c(F)c(Cl)c2)c2ncc(C(=O)NC3(C(=O)NC4(c5ccc(-c6cn[nH]c6)nn5)CC4)CC3)n21 [Compound 42] are within 1.5-fold of each other in IC50: 1.7 nM for the first, 1.3 nM for the second.

Cn1cc(-c2ccc(C3(NC(=O)C4(NC(=O)c5cnc6n5[C@](C)(Cc5ccc(C#N)cc5)C(=O)N6c5cc(Cl)cc(C(F)(F)F)c5)CC4)CC3)nc2)cn1 [Compound 51] and Cn1cc(-c2ccc(C3(NC(=O)C4(NC(=O)c5cnc6n5[C@](C)(Cc5ccc(Br)cc5)C(=O)N6c5cc(Cl)cc(Cl)c5)CC4)CC3)nc2)cn1 [Compound 75] are the same in IC50: 1.2 nM for the first, 1.2 nM for the second.

Going from C[C@@]1(Cc2ccc(C#N)cc2)C(=O)N(c2cc(Cl)cc(Cl)c2)c2ncc(C(=O)NC3(C(=O)NC4(c5ccc(-c6cccc(C(=O)O)c6)cn5)CC4)CC3)n21 [Compound 52] to C[C@@]1(Cc2ccc(C#N)cc2)C(=O)N(c2cc(Cl)cc(Cl)c2)c2ncc(C(=O)NC3(C(=O)NC4(c5ccc(-c6cccc(C(N)=O)c6)cn5)CC4)CC3)n21 [Compound 66], the IC50 rises from 0.72 nM to 1.3 nM (1.8-fold).

Compared with Cc1cc(-c2ccc(C3(NC(=O)C4(NC(=O)c5cnc6n5[C@](C)(Cc5ccc(C#N)cc5)C(=O)N6c5cc(Cl)cc(Cl)c5)CC4)CC3)nc2)ccn1 [Compound 54], Cc1ccc(-c2ccc(C3(NC(=O)C4(NC(=O)c5cnc6n5[C@](C)(Cc5ccc(C#N)cc5)C(=O)N6c5cc(Cl)cc(Cl)c5)CC4)CC3)nc2)cn1 [Compound 62] is 2.1-fold higher in IC50: 0.53 nM for the first, 1.1 nM for the second. The first is the more potent here.

CN(C)C(=O)c1cccc(-c2ccc(C3(NC(=O)C4(NC(=O)c5cnc6n5[C@](C)(Cc5ccc(C#N)cc5)C(=O)N6c5cc(Cl)cc(Cl)c5)CC4)CC3)nc2)c1 [Compound 56] and C[C@@]1(Cc2ccc(C#N)cc2)C(=O)N(c2cc(Cl)cc(Cl)c2)c2ncc(C(=O)NC3(C(=O)NC4(c5ccc(-c6ccc(F)nc6)cn5)CC4)CC3)n21 [Compound 58] are within 1.5-fold of each other in IC50: 0.67 nM for the first, 0.71 nM for the second.

Cc1n[nH]c(C)c1-c1ccc(C2(NC(=O)C3(NC(=O)c4cnc5n4[C@](C)(Cc4ccc(C#N)cc4)C(=O)N5c4cc(Cl)cc(Cl)c4)CC3)CC2)nc1 [Compound 60] and C[C@@]1(Cc2ccc(C#N)cc2)C(=O)N(c2cc(Cl)cc(Cl)c2)c2ncc(C(=O)NC3(C(=O)NC4(c5ccc(-c6ccc(Cl)nc6)cn5)CC4)CC3)n21 [Compound 61] are within 1.5-fold of each other in IC50: 0.96 nM for the first, 1 nM for the second.

Compared with C[C@H](NC(=O)c1cnc2n1[C@](C)(Cc1ccc(C#N)cc1)C(=O)N2c1cc(Cl)c(F)c(Cl)c1)C(=O)NC1(c2ncc(-c3ccc(CO)nc3)cn2)CC1 [Compound 78], C[C@H](NC(=O)c1cnc2n1[C@](C)(Cc1ccc(C#N)cc1)C(=O)N2c1cc(Cl)c(F)c(Cl)c1)C(=O)NC1(c2ccc(-c3ccc(CO)nc3)nc2)CC1 [Compound 90] is 4.3-fold lower in IC50: 1.2 nM for the first, 0.28 nM for the second.

C[C@H](NC(=O)c1cnc2n1[C@](C)(Cc1ccc(C#N)cc1)C(=O)N2c1cc(Cl)c(F)c(Cl)c1)C(=O)NC1(c2ccc(-c3cnn(C)c3)cn2)CC1 [Compound 88] and C[C@H](NC(=O)c1cnc2n1[C@](C)(Cc1ccc(C#N)cc1)C(=O)N2c1cc(Cl)c(F)c(Cl)c1)C(=O)NC1(c2ccc(-c3cn[nH]c3)cn2)CC1 [Compound 93] are within 1.5-fold of each other in IC50: 0.89 nM for the first, 0.7 nM for the second.

With Cc1nn(C)c(C)c1-c1ccc(C2(NC(=O)C3(NC(=O)c4cnc5n4[C@](C)(Cc4ccc(C#N)cc4)C(=O)N5c4cc(Cl)c(F)c(Cl)c4)CC3)CC2)nc1 [Compound 101] the IC50 was 1.1 nM.
